Laboratory results from ChEMBL document CHEMBL4507324 (2021).

Assays:
Details in all cases: Compound concentration 100.0 nM
[1] = target: Activin receptor type-2B (Homo sapiens) (UniProt Q13705)
[2] = target: Dual specificity protein kinase CLK3 (Homo sapiens) (UniProt P49761)
[3] = target: Tyrosine-protein kinase Fgr (Homo sapiens) (UniProt P09769)
[4] = target: Calcium/calmodulin-dependent protein kinase type 1G (Homo sapiens) (UniProt Q96NX5)
[5] = target: Serine/threonine-protein kinase ULK3 (Homo sapiens) (UniProt Q6PHR2)
[6] = target: TRAF2 and NCK-interacting protein kinase (Homo sapiens) (UniProt Q9UKE5)
[7] = target: Epithelial discoidin domain-containing receptor 1 (Homo sapiens) (UniProt Q08345)
[8] = target: Dual specificity tyrosine-phosphorylation-regulated kinase 2 (Homo sapiens) (UniProt Q92630)
[9] = target: Ribosomal protein S6 kinase alpha-1 (Homo sapiens) (UniProt Q15418)
[10] = target: Mitogen-activated protein kinase kinase kinase kinase 1 (Homo sapiens) (UniProt Q92918)
[11] = target: Ribosomal protein S6 kinase alpha-6 (Homo sapiens) (UniProt Q9UK32)
[12] = target: Proto-oncogene tyrosine-protein kinase ROS (Homo sapiens) (UniProt P08922)
[13] = target: Ribosomal protein S6 kinase alpha-2 (Homo sapiens) (UniProt Q15349)
[14] = system: ALK tyrosine kinase receptor (Homo sapiens), Q9UM73 [C1156Y]
[15] = target: Tyrosine-protein kinase Srms (Homo sapiens) (UniProt Q9H3Y6)
[16] = target: Proto-oncogene tyrosine-protein kinase receptor Ret (Homo sapiens) (UniProt P07949)
[17] = target: Insulin-like growth factor 1 receptor (Homo sapiens) (UniProt P08069)
[18] = target: Mitogen-activated protein kinase 1 (Homo sapiens) (UniProt P28482)
[19] = target: Myosin light chain kinase 2, skeletal/cardiac muscle (Homo sapiens) (UniProt Q9H1R3)
[20] = system: Hepatocyte growth factor receptor (Homo sapiens), P08581 [Y1235D]
[21] = target: AP2-associated protein kinase 1 (Homo sapiens) (UniProt Q2M2I8)
[22] = system: Receptor-type tyrosine-protein kinase FLT3 (Homo sapiens), P36888 [R834Q]
[23] = target: Serine/threonine-protein kinase 35 (Homo sapiens) (UniProt Q8TDR2)
[24] = target: Dual specificity protein kinase CLK1 (Homo sapiens) (UniProt P49759)
[25] = target: Serine/threonine-protein kinase haspin (Homo sapiens) (UniProt Q8TF76)
[26] = target: Serine/threonine-protein kinase MRCK gamma (Homo sapiens) (UniProt Q6DT37)
[27] = target: Serine/threonine-protein kinase WNK2 (Homo sapiens) (UniProt Q9Y3S1)
[28] = target: Serine/threonine-protein kinase 25 (Homo sapiens) (UniProt O00506)
[29] = system: Receptor-type tyrosine-protein kinase FLT3 (Homo sapiens), P36888 [D835V]
[30] = target: Protein kinase C eta type (Homo sapiens) (UniProt P24723)
[31] = system: Tyrosine-protein kinase ABL1 (Homo sapiens), P00519 [Q252H]
[32] = target: Serine/threonine-protein kinase D1 (Homo sapiens) (UniProt Q15139)
[33] = target: Non-receptor tyrosine-protein kinase TYK2 (Homo sapiens) (UniProt P29597)
[34] = target: Phosphorylase b kinase gamma catalytic chain, skeletal muscle/heart isoform (Homo sapiens) (UniProt Q16816)
[35] = target: Ephrin type-A receptor 8 (Homo sapiens) (UniProt P29322)
[36] = target: Mitogen-activated protein kinase 10 (Homo sapiens) (UniProt P53779)
[37] = target: Ephrin type-B receptor 2 (Homo sapiens) (UniProt P29323)
[38] = target: MAP/microtubule affinity-regulating kinase 4 (Homo sapiens) (UniProt Q96L34)
[39] = target: Mitogen-activated protein kinase kinase kinase 9 (Homo sapiens) (UniProt P80192)
[40] = system: Tyrosine-protein kinase ABL1 (Homo sapiens), P00519 [F317I]
[41] = target: Serine/threonine-protein kinase DCLK2 (Homo sapiens) (UniProt Q8N568)
[42] = system: Phosphatidylinositol 4,5-bisphosphate 3-kinase catalytic subunit alpha isoform (Homo sapiens), P42336 [E542K]
[43] = target: Phosphatidylinositol 4-phosphate 5-kinase type-1 alpha (Homo sapiens) (UniProt Q99755)
[44] = target: Testis-specific serine/threonine-protein kinase 1 (Homo sapiens) (UniProt Q9BXA7)
[45] = target: Cyclin-dependent kinase 11B (Homo sapiens) (UniProt P21127)

Sequence of Calcium/calmodulin-dependent protein kinase type 1G (Homo sapiens) (Q96NX5 whole entry): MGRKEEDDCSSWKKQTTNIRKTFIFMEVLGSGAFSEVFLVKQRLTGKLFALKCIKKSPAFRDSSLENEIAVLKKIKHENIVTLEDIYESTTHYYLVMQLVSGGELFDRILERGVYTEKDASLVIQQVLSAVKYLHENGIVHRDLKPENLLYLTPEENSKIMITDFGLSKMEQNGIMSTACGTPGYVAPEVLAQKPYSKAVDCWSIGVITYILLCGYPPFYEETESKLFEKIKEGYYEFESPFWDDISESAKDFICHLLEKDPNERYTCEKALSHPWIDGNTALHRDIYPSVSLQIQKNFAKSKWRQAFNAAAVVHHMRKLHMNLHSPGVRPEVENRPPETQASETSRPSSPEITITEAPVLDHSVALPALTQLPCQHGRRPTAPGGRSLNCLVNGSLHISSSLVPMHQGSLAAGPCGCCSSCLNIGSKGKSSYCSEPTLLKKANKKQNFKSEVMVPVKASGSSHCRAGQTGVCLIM
Sequence of Phosphorylase b kinase gamma catalytic chain, skeletal muscle/heart isoform (Homo sapiens) (Q16816 whole entry, looked up, canonical isoform): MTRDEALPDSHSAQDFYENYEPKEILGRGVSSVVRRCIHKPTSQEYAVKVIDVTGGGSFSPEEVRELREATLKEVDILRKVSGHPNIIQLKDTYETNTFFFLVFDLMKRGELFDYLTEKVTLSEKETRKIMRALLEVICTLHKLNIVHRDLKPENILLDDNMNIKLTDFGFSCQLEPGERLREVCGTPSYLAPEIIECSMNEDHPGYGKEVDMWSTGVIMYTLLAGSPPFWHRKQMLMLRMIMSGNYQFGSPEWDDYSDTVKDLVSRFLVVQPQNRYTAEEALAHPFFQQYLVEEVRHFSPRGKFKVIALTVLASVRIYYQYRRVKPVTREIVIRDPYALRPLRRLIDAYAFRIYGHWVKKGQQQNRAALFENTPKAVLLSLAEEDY
Sequence of Insulin-like growth factor 1 receptor (Homo sapiens) (P08069 31-736 limits assumed): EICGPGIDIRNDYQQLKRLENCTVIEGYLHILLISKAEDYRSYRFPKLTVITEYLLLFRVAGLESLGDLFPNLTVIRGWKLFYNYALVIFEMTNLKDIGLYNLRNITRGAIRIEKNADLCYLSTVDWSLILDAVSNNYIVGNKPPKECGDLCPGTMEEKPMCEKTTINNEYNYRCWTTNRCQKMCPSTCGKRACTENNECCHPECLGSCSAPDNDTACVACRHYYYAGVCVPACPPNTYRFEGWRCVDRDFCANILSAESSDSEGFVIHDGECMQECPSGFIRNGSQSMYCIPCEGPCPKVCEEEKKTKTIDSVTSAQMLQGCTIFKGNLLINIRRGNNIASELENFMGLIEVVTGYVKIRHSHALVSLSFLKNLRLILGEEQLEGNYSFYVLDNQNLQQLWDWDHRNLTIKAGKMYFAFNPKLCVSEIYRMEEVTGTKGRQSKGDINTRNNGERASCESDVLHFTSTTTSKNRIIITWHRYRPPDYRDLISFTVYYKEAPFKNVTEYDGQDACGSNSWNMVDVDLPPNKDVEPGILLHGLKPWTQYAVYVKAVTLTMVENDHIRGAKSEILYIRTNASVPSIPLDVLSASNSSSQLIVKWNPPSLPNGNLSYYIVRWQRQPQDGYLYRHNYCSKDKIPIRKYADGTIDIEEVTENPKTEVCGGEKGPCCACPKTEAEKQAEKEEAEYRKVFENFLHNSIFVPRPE
Sequence of Insulin-like growth factor 1 receptor (Homo sapiens) (P08069 741-1367 limits assumed): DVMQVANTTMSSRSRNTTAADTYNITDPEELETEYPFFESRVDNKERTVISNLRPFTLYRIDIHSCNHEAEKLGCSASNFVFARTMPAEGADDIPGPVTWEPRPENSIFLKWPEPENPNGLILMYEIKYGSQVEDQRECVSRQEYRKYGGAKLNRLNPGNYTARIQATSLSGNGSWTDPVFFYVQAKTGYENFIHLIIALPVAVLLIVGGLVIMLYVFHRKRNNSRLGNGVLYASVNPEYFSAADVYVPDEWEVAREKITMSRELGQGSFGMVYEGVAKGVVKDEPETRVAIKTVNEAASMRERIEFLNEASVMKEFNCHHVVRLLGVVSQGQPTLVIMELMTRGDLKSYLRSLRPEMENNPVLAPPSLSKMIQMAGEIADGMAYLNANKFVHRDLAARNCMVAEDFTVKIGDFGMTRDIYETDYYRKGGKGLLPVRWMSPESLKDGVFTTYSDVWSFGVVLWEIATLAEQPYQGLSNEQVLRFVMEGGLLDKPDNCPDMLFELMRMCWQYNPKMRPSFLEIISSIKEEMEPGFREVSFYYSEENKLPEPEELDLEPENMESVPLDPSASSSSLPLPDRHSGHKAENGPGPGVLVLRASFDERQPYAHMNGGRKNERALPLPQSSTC
Sequence of Testis-specific serine/threonine-protein kinase 1 (Homo sapiens) (Q9BXA7 whole entry): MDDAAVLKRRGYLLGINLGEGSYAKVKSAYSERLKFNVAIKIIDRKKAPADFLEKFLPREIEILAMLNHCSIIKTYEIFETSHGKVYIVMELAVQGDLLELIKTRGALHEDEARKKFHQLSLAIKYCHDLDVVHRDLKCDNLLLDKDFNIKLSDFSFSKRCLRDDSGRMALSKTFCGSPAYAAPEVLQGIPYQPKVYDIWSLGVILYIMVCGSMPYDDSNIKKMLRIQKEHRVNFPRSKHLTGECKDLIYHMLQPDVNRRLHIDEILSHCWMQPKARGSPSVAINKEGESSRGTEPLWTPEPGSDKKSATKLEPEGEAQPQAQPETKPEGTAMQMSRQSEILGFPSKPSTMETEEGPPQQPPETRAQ
Sequence of Ribosomal protein S6 kinase alpha-6 (Homo sapiens) (Q9UK32 whole entry): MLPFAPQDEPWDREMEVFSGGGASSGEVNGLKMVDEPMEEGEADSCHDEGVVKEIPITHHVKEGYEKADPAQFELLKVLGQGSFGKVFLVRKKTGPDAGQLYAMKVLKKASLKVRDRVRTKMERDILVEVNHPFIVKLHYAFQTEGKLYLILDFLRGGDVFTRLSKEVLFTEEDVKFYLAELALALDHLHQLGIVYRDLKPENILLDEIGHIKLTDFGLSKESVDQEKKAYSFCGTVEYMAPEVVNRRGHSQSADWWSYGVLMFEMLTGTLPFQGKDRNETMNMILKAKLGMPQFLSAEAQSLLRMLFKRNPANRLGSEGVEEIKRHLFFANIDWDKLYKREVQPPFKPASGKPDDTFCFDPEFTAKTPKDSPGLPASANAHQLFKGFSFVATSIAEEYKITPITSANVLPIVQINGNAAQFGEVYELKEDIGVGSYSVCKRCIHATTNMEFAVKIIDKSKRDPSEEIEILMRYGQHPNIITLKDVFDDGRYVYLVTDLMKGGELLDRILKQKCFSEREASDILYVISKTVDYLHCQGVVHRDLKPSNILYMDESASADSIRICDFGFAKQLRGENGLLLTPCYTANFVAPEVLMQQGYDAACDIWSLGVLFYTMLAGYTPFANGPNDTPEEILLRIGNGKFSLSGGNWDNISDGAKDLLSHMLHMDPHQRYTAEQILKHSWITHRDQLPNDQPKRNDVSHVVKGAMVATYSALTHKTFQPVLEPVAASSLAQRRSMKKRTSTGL
Sequence of Serine/threonine-protein kinase 25 (Homo sapiens) (O00506 whole entry, looked up): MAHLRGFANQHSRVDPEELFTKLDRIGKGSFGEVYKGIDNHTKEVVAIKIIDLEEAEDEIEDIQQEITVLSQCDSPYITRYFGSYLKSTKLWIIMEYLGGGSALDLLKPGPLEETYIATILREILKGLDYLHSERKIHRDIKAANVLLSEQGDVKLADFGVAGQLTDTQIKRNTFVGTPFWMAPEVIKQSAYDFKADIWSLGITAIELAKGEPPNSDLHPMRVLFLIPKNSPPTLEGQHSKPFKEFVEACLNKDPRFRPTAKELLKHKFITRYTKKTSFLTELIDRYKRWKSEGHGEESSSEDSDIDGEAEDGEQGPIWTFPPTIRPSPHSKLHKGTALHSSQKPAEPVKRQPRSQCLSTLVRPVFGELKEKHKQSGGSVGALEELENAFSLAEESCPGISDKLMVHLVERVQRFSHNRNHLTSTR
Sequence of Proto-oncogene tyrosine-protein kinase receptor Ret (Homo sapiens) (P07949 whole entry): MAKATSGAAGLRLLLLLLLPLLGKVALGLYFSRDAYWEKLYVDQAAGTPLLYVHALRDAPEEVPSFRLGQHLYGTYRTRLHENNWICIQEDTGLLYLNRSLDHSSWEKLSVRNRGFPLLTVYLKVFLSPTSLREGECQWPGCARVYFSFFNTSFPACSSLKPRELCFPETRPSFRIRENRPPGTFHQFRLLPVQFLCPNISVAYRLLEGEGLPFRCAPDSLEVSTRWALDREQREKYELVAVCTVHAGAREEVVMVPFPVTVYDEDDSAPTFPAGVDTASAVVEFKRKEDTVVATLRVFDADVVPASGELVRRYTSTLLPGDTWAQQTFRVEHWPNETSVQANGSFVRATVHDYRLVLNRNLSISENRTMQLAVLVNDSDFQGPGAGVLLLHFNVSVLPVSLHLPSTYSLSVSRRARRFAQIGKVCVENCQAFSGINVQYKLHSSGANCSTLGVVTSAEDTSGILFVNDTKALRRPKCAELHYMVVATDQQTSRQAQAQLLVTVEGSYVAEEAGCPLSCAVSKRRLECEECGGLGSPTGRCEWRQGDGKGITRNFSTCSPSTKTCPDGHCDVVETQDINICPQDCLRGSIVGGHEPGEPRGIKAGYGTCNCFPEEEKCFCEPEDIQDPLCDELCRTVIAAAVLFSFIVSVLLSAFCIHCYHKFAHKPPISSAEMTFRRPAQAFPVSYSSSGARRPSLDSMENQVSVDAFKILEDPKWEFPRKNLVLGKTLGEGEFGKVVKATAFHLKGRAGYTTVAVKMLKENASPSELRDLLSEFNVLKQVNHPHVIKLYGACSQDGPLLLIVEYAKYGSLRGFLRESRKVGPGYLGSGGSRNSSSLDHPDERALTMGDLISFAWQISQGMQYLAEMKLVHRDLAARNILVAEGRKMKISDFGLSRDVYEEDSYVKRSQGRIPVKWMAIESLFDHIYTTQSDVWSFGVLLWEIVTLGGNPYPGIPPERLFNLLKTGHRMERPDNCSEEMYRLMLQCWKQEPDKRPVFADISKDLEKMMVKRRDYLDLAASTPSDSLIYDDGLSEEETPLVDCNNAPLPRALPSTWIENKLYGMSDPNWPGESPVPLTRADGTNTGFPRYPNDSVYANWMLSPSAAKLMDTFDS

## CS(=O)(=O)N1CCCC(NC(=O)[C@H](CCC2CCCCC2)NC(=O)c2ccc(CNC(=O)c3cnc4ccccn34)cc2)C1 (stereo not given in full) [SR-302]
[1]
  residual activity: 100%
[2]
  residual activity: 100%
[3]
  residual activity: 87%
[4]
  residual activity: 84%
[5]
  residual activity: 100%
[6]
  residual activity: 100%
[7]
  residual activity: 0.1%
[8]
  residual activity: 100%
[9]
  residual activity: 74%
[10]
  residual activity: 95%
[11]
  residual activity: 82%
[12]
  residual activity: 100%
[13]
  residual activity: 80%
[14]
  residual activity: 100%
[15]
  residual activity: 71%
[16]
  residual activity: 85%
[17]
  residual activity: 73%
[18]
  residual activity: 100%
[19]
  residual activity: 90%
[20]
  residual activity: 99%
[21]
  residual activity: 92%
[22]
  residual activity: 100%
[23]
  residual activity: 100%
[24]
  residual activity: 86%
[25]
  residual activity: 74%
[26]
  residual activity: 98%
[27]
  residual activity: 100%
[28]
  residual activity: 100%
[29]
  residual activity: 61%
[30]
  residual activity: 95%
[31]
  residual activity: 88%
[32]
  residual activity: 93%
[33]
  residual activity: 86%
[34]
  residual activity: 68%
[35]
  residual activity: 89%
[36]
  residual activity: 85%
[37]
  residual activity: 100%
[38]
  residual activity: 100%
[39]
  residual activity: 65%
[40]
  residual activity: 80%
[41]
  residual activity: 100%
[42]
  residual activity: 78%
[43]
  residual activity: 89%
[44]
  residual activity: 94%
[45]
  residual activity: 94%

## CS(=O)(=O)N1CCCC(NC(=O)[C@H](CCC2CCCCC2)NC(=O)c2ccc(CNc3ncnc4c3nnn4-c3ccccc3)cc2)C1 (stereo not given in full) [SR-301]
[1]
  residual activity: 83%
[2]
  residual activity: 85%
[3]
  residual activity: 88%
[4]
  residual activity: 92%
[5]
  residual activity: 99%
[6]
  residual activity: 45%
[7]
  residual activity: 89%
[8]
  residual activity: 100%
[9]
  residual activity: 100%
[10]
  residual activity: 100%
[11]
  residual activity: 100%
[12]
  residual activity: 91%
[13]
  residual activity: 100%
[14]
  residual activity: 100%
[15]
  residual activity: 98%
[16]
  residual activity: 87%
[17]
  residual activity: 100%
[18]
  residual activity: 90%
[19]
  residual activity: 90%
[20]
  residual activity: 98%
[21]
  residual activity: 90%
[22]
  residual activity: 94%
[23]
  residual activity: 100%
[24]
  residual activity: 87%
[25]
  residual activity: 100%
[26]
  residual activity: 99%
[27]
  residual activity: 100%
[28]
  residual activity: 90%
[29]
  residual activity: 89%
[30]
  residual activity: 79%
[31]
  residual activity: 95%
[32]
  residual activity: 91%
[33]
  residual activity: 100%
[34]
  residual activity: 87%
[35]
  residual activity: 100%
[36]
  residual activity: 100%
[37]
  residual activity: 87%
[38]
  residual activity: 71%
[39]
  residual activity: 90%
[40]
  residual activity: 88%
[41]
  residual activity: 95%
[42]
  residual activity: 64%
[43]
  residual activity: 100%
[44]
  residual activity: 85%
[45]
  residual activity: 100%
